According to patent publication US20220267288A1, “CARDIAC THERAPEUTIC” (priority 2019, published 2022):

What was measured:
dogs = assay: Electrophysiological variables (AERP, VERP, repolarization periods) in halothane-anesthetized dogs; assay type: in vivo, dog; details: 3 mg/kg
Description: Animals were obtained through Kitayama Labes Co., Ltd. (Nagano, Japan). All experiments were approved by the Toho University Animal Care and User Committee (No. 18-51-395) and performed according to the Guideline for the Care and Use of Laboratory Animals of Toho University.
The dogs were initially anesthetized with thiopental sodium (30 mg/kg, i.v.). After intubation with a cuffed endotracheal tube, anesthesia was maintained by inhalation of halothane (1% v/v) vaporized in oxygen with a volume-limited ventilator (SN-480-3; Shinano Manufacturing Co., Ltd., Tokyo, Japan). Tidal volume and respiratory rate were set at 20 mL/kg and 15 breaths/min, respectively. […] To prevent blood clotting, heparin calcium (100 IU/kg) was intravenously administered through a flush line of the catheter sheath placed at the right femoral vein.
The lead II electrocardiogram was obtained from the limb electrodes. The P-wave duration, PR interval, QRS width and QT interval were measured, and QT interval was corrected with Van de Water's formula: QTc=QT-0.087×(RR-1,000) with RR given in ms. The J-Tpeak and Tpeak-Tend were measured as follows. When the end of T-wave was obscure, we used the monophasic action potential (MAP) signal as a guide to estimate the end. The J-Tpeak was corrected for the heart rate with a coefficient as previously described (J-Tpeakc=J-Tpeak/RR^0.58 with RR given in seconds).
A standard 6-French, quad-polar electrodes catheter (Cordis-Webster Inc., Baldwin Park, Calif., USA) was positioned at the non-coronary cusp of the aortic valve through the left femoral artery to obtain the His bundle electrogram. Another 6-French, quad-polar electrode catheter (Cordis-Webster Inc.) was positioned at the sinus nodal areas of the right atrium through the right femoral vein to electrically pace and to record the local electrogram. A bi-directional steerable MAP recording/pacing combination catheter (1675P; EP Technologies, Inc., CA, USA) was positioned at the endocardium of the interventricular septum in the right ventricle through the left femoral vein to obtain MAP signals. The signals were amplified with a DC preamplifier (model 300; EP Technologies, Inc.). The duration of the MAP signals was measured as an interval, along a horizontal line corresponding to the diastolic baseline, from the MAP upstroke to the desired repolarization level. The interval (ms) at 90% repolarization was defined as MAP90.
The heart was electrically driven with a cardiac stimulator (SEC-3102; Nihon Kohden Co., Ltd.) via the pacing electrodes of the combination catheter placed in the right ventricle or the electrodes of the catheter placed at the right atrium. The stimulation pulses were rectangular in shape, 1-2 V (about twice the threshold voltage) and 1 ms duration. The MAP90 of the ventricle was measured during sinus rhythm (MAP90(sinus)) and at a pacing cycle length of 400 ms (MAP90(CL400)) and 300 ms (MAP90(CL300)). The atrial effective refractory period (AERP) and ventricular effective refractory period (VERP) were assessed with the programmed electrical stimulation. The pacing protocol consisted of 5 beats of basal stimuli in a cycle length of 400 ms followed by an extra stimulus of various coupling intervals. Starting in the late diastole, the coupling interval was shortened in 5-ms decrements until the additional stimulus could no longer elicit a response. The AERP and VERP were defined as the shortest coupling interval that could produce a response. The duration of the terminal repolarization period of the ventricle, reflecting phase-3 repolarization time of the action potential, was calculated by the difference between the MAP90(CL400) and VERP (terminal repolarization period=MAP90(CL400)−VERP) at the same site to estimate the extent of electrical vulnerability of the ventricular muscle.

H9c2 cells [1] = assay: Reduction of intracellular ATP (Mitochondrial ToxGlo) in differentiated H9c2 cells; assay type: cell-based; details: 0-1 μM pre-treatment 2 h, then dronedarone
Description: (§1) H9c2 cell line was purchased from American Tissue Type Collection (ATCC) (Manassas, Va.). The cells were cultured in low-glucose DMEM growth media (Cat No: 31600, Thermo Fisher Scientific, Waltham, Mass.) supplemented with 1.5 g/L sodium bicarbonate, 25 mM HEPES, 10% fetal bovine serum (FBS) (GE Healthcare, Singapore), 100 units/mL penicillin, 100 μg/mL streptomycin and 250 ng/mL amphotericin B in 75-cm^2 tissue-culture flasks at 37° C. in a humidified atmosphere of 5% CO2. Cells were fed every 2-3 days and sub-cultured once 70-80% confluency was achieved to prevent the loss of differentiation potential. For differentiation, H9c2 cells were seeded at a density of 100,000 cells/well in 12-well plates. The cells were maintained for 1 day in low-glucose high-serum growth media to allow for cell attachment. Subsequently, cells were differentiated using 1 μM ATRA.
H9c2 cells were seeded in a white chimney plate and differentiated. The media was changed to DMEM with 10 mM galactose, 2 mM glutamine (6 mM final), 5 mM HEPES, 1 mM sodium pyruvate, 100 U/mL penicillin, 100 μg/mL streptomycin, 0.25 μg/mL amphotericin B, 1% FBS, 1× insulin-transferrin-selenium and 1 μM ATRA for 48 h to overcome the Crabtree effect. […] The cytotoxicity and intracellular ATP content were measured concurrently using Mitochondrial ToxGlo™ kit (Promega, Madison, Wis.) using manufacturer's protocol. Mitochondrial ToxGlo™ assay measures the cell viability using fluorogenic peptide bis-alanine-alanine-phenylalanine-R110 (bis-AAF-R110). Bis-AAF-R110 is a selective peptide that measures protease activity in dead cells since it is impermeable to live cells. Here, the fluorescence derived from metabolized bis-AAF-R110 was measured at different concentrations of the test compounds and compared to control. As the concentration of cytotoxic compound increases, the number of dead cells increases, leading to a higher fluorescence signal. ATP is measured by adding the ATP Detection Reagent, resulting in cell lysis and generation of a luminescent signal proportional to the amount of ATP present. […]

H9c2 cells [2] = assay: Mitochondrial membrane potential (Δψm) dissipation, TMRM dye; assay type: cell-based; details: pre-treatment, then dronedarone at 5 μM
Description: as §1
Dissipation of Δψm by each test compound was measured using mitochondrial permeable dye, tetramethylrhodamine methyl ester perchlorate (TMRM) (Thermo Fisher Scientific, Waltham, Mass.). […] The media was aspirated, the cells were washed with PBS and fluorescence was measured at 557 nm excitation and 570 nm emission wavelengths. […] The media was aspirated and then the cells were treated with dronedarone and the dissipation of Δψm by AADs was measured as described.

hiPSC-CM = assay: Extracellular field potential duration (FPD), multi electrode array; assay type: cell-based, human; details: MEA, 0-10 μM
Description: Electrophysiological perturbations of hiPSC-CM were measured using multi electrode array (MEA) recording system (Multichannel Systems, Reutlingen, Germany). […] FPD measurements were normalized (corrected FPD [cFPD]) to the beating rate of the contracting areas with the Bazzet correction formula: cFPD=FPD/√(RR interval) as described previously^3. One-phase decay algorithm was used to plot corrected FPD curves.

CYP2J2 [3] = target: T1, CYP2J2 (Homo sapiens, UniProt P51589); assay: Time- and concentration-dependent inactivation (MBI) of CYP2J2, rivaroxaban as probe substrate; assay type: biochemical; set-up: purchased BD Gentest (Woburn, Mass.)
T1 sequence (P51589 1-502): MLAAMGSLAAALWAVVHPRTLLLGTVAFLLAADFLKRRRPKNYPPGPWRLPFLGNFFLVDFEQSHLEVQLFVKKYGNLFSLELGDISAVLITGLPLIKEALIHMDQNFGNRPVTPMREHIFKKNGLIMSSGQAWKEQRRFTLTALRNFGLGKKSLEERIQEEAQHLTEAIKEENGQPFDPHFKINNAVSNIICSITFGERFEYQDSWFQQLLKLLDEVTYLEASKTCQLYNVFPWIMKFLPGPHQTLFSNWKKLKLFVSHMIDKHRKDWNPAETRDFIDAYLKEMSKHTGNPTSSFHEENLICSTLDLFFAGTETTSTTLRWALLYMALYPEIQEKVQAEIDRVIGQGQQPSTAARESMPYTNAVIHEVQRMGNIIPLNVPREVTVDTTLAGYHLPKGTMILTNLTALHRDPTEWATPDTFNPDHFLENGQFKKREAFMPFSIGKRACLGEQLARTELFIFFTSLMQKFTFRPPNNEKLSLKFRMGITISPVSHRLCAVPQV
Description: Incubations were conducted in triplicates in 96-well plates. Primary incubation mixtures comprising various concentrations of inhibitor (0-20 μM) were pre-incubated at 37° C. for 3 min with CYP450 enzymes (20 pmol/m L) and NADPH B in potassium phosphate buffer (100 mM, pH 7.4). To initiate the enzymatic reaction, 5 μL NADPH A was added to the primary incubation. The final primary incubation mixture volume was 100 μL and contained <1% v/v organic solvent. At different pre-incubation time points (3, 8, 15, 22, 30, and 45 min) after the addition of NADPH A, 5 μL aliquots of the primary incubation were transferred to 95 μL of the secondary incubation containing 50 μM rivaroxaban, the NADPH A and B, and potassium phosphate buffer (100 mM, pH 7.4) to yield a 20-fold dilution. The secondary incubation mixtures were incubated at 37° C. for 30 min with CYP2J2, before 80 μL aliquots were removed and quenched with an equal volume of ice-cold ACN containing 4 μM dexamethasone as IS. The samples were then centrifuged at 3220 g at 4° C. for 30 min before transferring the supernatant to a 96-well plate for liquid chromatography-tandem mass spectrometry (LC-MS/MS) analysis. The main rivaroxaban metabolite, morpholinone hydroxylated metabolite, was quantified using LC-MS/MS analysis.
The mean of triplicate peak area ratios for each concentration and pre-incubation time was normalized to that of 0 μM with the same pre-incubation time. The amount of rivaroxaban metabolite formed during the secondary incubation, a measure of the probe substrate activity remaining, was computed and the natural logarithm of this measure was plotted against inactivation pre-incubation time for each inactivator concentration. […]
In equation 1, kinact=maximum inactivation rate constant at infinite inactivator concentration (in min^−1); KI=concentration of inactivator at the half-maximal rate constant of inactivation (in μM); [I]=in vitro inactivator concentration (in μM). MBI potency (kinact/KI ratio, μM-1·min-1) against human recombinant CYP2J2 is determined for each compound. […]

CYP2J2 [4] = tested on: CYP2J2
Description: The human ES cell line (H7 ESCs) with a knocked in, constitutively expressed Genetically Encoded Calcium Indicator (GECI) GCaMP6s was maintained on matrigel coated plates in StemMACS™ iPS-Brew XF (Miltenyi Biotec) and passaged in clumps using Collagenase IV (1 mg/mL) enzymatic treatment. For differentiation, ESCs were passaged in single cells using Accutase (Nacalai Tesque), and subjected to the previously established small molecule based GiWi cardiomyocyte differentiation protocol. At Day 7, the media was replaced with RPMI1640 (HyClone) supplemented with B27 with insulin (B27+) (Miltenyi Biotec) for maturation and refreshed every 2 days. […] The cardiomyocytes (H7 CMs) were used for siRNA transfections on day 28. […]
RNA samples (250 ng) were reverse transcribed to obtain cDNA using High-Capacity cDNA Reverse Transcription Kit (Applied Biosystems, U.S.A.). qPCR was performed using the FAST SYBR Green Mix (Applied Biosystems, U.S.A.) on 5 ng of cDNA. ΔΔCT-based relative quantification method was adopted for qPCR analysis using the QuantStudio 5 384-well Block Real-Time PCR system (Applied Biosystems, U.S.A.). The threshold cycle was determined to be Data is presented as fold-change where CT values were normalised to β-ACT/N. Data presented are representative of two independent experiments with error bars indicative of the standard deviation (SD) unless otherwise stated.

For `CC(C)NCC(O)c1ccc(NS(C)(=O)=O)cc1` (racemic) [dl-sotalol], the “ΔJ-Tpeakc (early repolarization period)” value (dogs; 10 min after administration) was “+35”, the “ΔTRP (terminal repolarization period)” value (dogs; 10 min after administration) was −1 and the “ΔTpeak-Tend (late repolarization period)” value (dogs; 10 min after administration) was “+17”. The “Atrial selectivity (ΔAERP/ΔVERP)” value (dogs; 20 min after administration) was 1.1, the ΔAERP (dogs; 20 min after administration) was “+60” and the ΔVERP (dogs; 20 min after administration) was “+53”. For the same compound, the “Atrial selectivity (ΔAERP/ΔVERP)” value (dogs; 30 min after administration) was 1.0, the ΔAERP (dogs; 30 min after administration) was “+56” and the ΔVERP (dogs; 30 min after administration) was “+54”.

`CCCCCC1OC1C/C=C\C/C=C\C/C=C\CCCC(=O)O` (stereo not shown) [14,15-EET] was tested, and the “effect of pre-treatment on dronedarone-induced decrease in intracellular ATP” value (H9c2 cells [1]) was “mitigated the decrease in intracellular ATP levels in a concentration-dependent manner” and the “effect of pre-treatment on dronedarone-induced Δψm dissipation” value (H9c2 cells [2]) was “concentration-dependent mitigation of Δψm dissipation”.

`CCCCc1oc2ccccc2c1C(=O)c1cc(I)c(OCCN(CC)CC)c(I)c1` [Amiodarone] was tested, and the “ΔJ-Tpeakc (early repolarization period)” value (dogs; 15 min after administration) was −10, the “ΔTRP (terminal repolarization period)” value (dogs; 15 min after administration) was −11 and the “ΔTpeak-Tend (late repolarization period)” value (dogs; 15 min after administration) was “+18”. For the same compound, the ΔAERP (dogs; 60 min after administration) was “+29”, the ΔVERP (dogs; 60 min after administration) was “+18” and the “effect on extracellular field potential duration (FPD)” value (hiPSC-CM) was “Dose-dependent increase in the FPD”.

With `Cl.[2H]c1c([2H])c(C(=O)c2c(CCCC)oc3ccc(NS(C)(=O)=O)cc23)c([2H])c([2H])c1OCCCN(CCCC)CCCC` [Compound 2] the “inactivation (MBI) of CYP2J2, in words” value (CYP2J2 [3]) was “inactivated CYP2J2 in a time- and concentration-dependent manner”.

`CC(C)COCC(CN(Cc1ccccc1)c1ccccc1)N1CCCC1` (stereo not shown) [bepridil] was tested, and the “Atrial selectivity (ΔAERP/ΔVERP)” value (dogs; 10 min after administration) was 3.0, the ΔAERP (dogs; 10 min after administration) was “+53” and the ΔVERP (dogs; 10 min after administration) was “+55”. The “ΔJ-Tpeakc (early repolarization period)” value (dogs; 20 min after administration) was “+31”, the “ΔTRP (terminal repolarization period)” value (dogs; 20 min after administration) was “+4” and the “ΔTpeak-Tend (late repolarization period)” value (dogs; 20 min after administration) was “+14”.

“siRNA1: Accell self-delivery siRNA against CYP2J2, CUCAGGUGUAAUAUUGUUA, SEQ ID NO: 1 (Accell self-delivery modifications, pattern not given here)” was tested, and the “knockdown of CYP2J2, in words” value (CYP2J2 [4]) was “most effective”.
